According to patent publication US9765108B2 (SHILPA MEDICARE LIMITED, priority 2012, dated 2017):
Where two headings read alike, the source gives them in different places.

What was measured:
[1] = cited from earlier work
[2] = Water content of lyophilized formulation / crystalline form; assay type: physicochemical; conditions: neat crystalline form as obtained after lyophilization, no bulking agent
Description: The secondary drying phase is the final segment of the lyophilization cycle, where residual moisture is removed from a formulation's interstitial matrix by desorption with elevated temperatures and/or reduced pressures. The final moisture content of a lyophilized formulation, which can be measured by Karl Fischer or other methods, is important because if the solid cake contains too much residual moisture, the stability of the active can be compromised.
Chemical stability is tested for both example 1 & it's corresponding placebo formulation by storing the lyophilized vials under various conditions: 25° C. and 60% relative humidity (“A”); 40° C. and 75% relative humidity (“B”); and 60° (“C”); for one month. Impurity analyses are done before storage (“Initial”) and after storage, and are expressed as percentages of the label 5-azacytidine content.

Row | Compound | Solubility ([1]; 5% Tween 80 in water) | Solubility ([1]; 5% dextrose in water) | Solubility ([1]; N-methylpyrrolidone) | Solubility ([1]; acetone) | Solubility ([1]; dimethylsulfoxide (DMSO)) | Solubility ([1]; ethanol and water (50:50)) | Solubility ([1]; ethanol) | Solubility ([1]; methyl ethyl ketone) | Solubility ([1]; normal saline) | Solubility ([1]; polyethylene glycol) | Solubility ([1]; propylene glycol) | Solubility ([1]; water saturated octanol) | Solubility ([1]; water) | Water content [2]
1 | Nc1ncn([C@@H]2O[C@H](CO)[C@@H](O)[C@H]2O)c(=O)n1 [5-azacytidine, 4-amino-1-β-D-ribofuranosyl-1,3,5-triazin-2(1H)-one] | sparingly soluble | sparingly soluble | sparingly soluble | insoluble | soluble | slightly soluble | insoluble | insoluble | sparingly soluble | slightly soluble | slightly soluble | sparingly soluble | sparingly soluble | 
2 | Nc1ncn([C@@H]2O[C@H](CO)[C@@H](O)[C@H]2O)c(=O)n1 [Crystalline 5-Azacytidine Form-SA-1, 5-Azacytidine] |  |  |  |  |  |  |  |  |  |  |  |  |  | 0.6 % w/w
3 | Nc1ncn([C@@H]2O[C@H](CO)[C@@H](O)[C@H]2O)c(=O)n1 [Crystalline 5-Azacytidine Form-SA-2, 5-Azacytidine] |  |  |  |  |  |  |  |  |  |  |  |  |  | 0.7 % w/w
